Source: PubChem BioAssay (NCI)
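Values below derive from 48-hour exposures of cells grown in 96-well plates, with endpoints linearly interpolated between the two concentrations bracketing the appropriate inhibition level. GI50 = concentration required for 50% inhibition of growth. TGI denotes the concentration required for complete inhibition of growth.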

Assays:
Assay in all cases: NCI-60 cell line screen, 48 h
MALME-3M melanoma = test system: MALME-3M melanoma
CAKI-1 renal = test system: CAKI-1 renal
PC-3 prostate = test system: PC-3 prostate
M14 melanoma = test system: M14 melanoma
SF-539 CNS = test system: SF-539 CNS
HCT-15 colon = test system: HCT-15 colon
RXF 393 renal = test system: RXF 393 renal
HT29 colon = test system: HT29 colon
MDA-MB-435 = test system: MDA-MB-435
HL-60(TB) leukemia = test system: HL-60(TB) leukemia
SNB-19 CNS = test system: SNB-19 CNS
TK-10 renal = test system: TK-10 renal
SF-295 CNS = test system: SF-295 CNS
COLO 205 colon = test system: COLO 205 colon
OVCAR-5 ovarian = test system: OVCAR-5 ovarian
DU-145 prostate = test system: DU-145 prostate
K-562 leukemia = test system: K-562 leukemia
MDA-MB-231 breast = test system: MDA-MB-231 breast
RPMI-8226 leukemia = test system: RPMI-8226 leukemia
NCI-H460 lung = test system: NCI-H460 lung
SN12C renal = test system: SN12C renal
SR leukemia = test system: SR leukemia
KM12 colon = test system: KM12 colon
HOP-92 NSCLC = test system: HOP-92 NSCLC
OVCAR-4 ovarian = test system: OVCAR-4 ovarian
SF-268 CNS = test system: SF-268 CNS
HOP-62 NSCLC = test system: HOP-62 NSCLC
A549 NSCLC = test system: A549 NSCLC
UACC-62 melanoma = test system: UACC-62 melanoma
SK-MEL-28 melanoma = test system: SK-MEL-28 melanoma
T-47D breast = test system: T-47D breast
CCRF-CEM leukemia = test system: CCRF-CEM leukemia
U251 CNS = test system: U251 CNS
SK-MEL-5 melanoma = test system: SK-MEL-5 melanoma
MDA-N = test system: MDA-N
A498 renal = test system: A498 renal
BT-549 breast = test system: BT-549 breast
EKVX NSCLC = test system: EKVX NSCLC
SW-620 colon = test system: SW-620 colon
HS 578T breast = test system: HS 578T breast
OVCAR-3 ovarian = test system: OVCAR-3 ovarian
MCF7 breast = test system: MCF7 breast
786-0 renal = test system: 786-0 renal
IGROV1 ovarian = test system: IGROV1 ovarian
HCT-116 colon = test system: HCT-116 colon
MOLT-4 leukemia = test system: MOLT-4 leukemia
NCI/ADR-RES ovarian = test system: NCI/ADR-RES ovarian
SK-MEL-2 melanoma = test system: SK-MEL-2 melanoma
LOX IMVI melanoma = test system: LOX IMVI melanoma
NCI-H23 lung = test system: NCI-H23 lung
UACC-257 melanoma = test system: UACC-257 melanoma
OVCAR-8 ovarian = test system: OVCAR-8 ovarian
SK-OV-3 ovarian = test system: SK-OV-3 ovarian
ACHN renal = test system: ACHN renal
NCI-H522 lung = test system: NCI-H522 lung
UO-31 renal = test system: UO-31 renal
SNB-75 CNS = test system: SNB-75 CNS
HCC-2998 colon = test system: HCC-2998 colon
NCI-H226 lung = test system: NCI-H226 lung

Cc1ccc([C@]2(C)CC[C@H](C)/C2=C\Br)c(O)c1
GI50 (MALME-3M melanoma): 3.88 µM
TGI (MALME-3M melanoma): 14.1 µM
GI50 (CAKI-1 renal): 4.32 µM
TGI (CAKI-1 renal): 16.6 µM
GI50 (PC-3 prostate): 4.2 µM
TGI (PC-3 prostate): 17.7 µM
GI50 (M14 melanoma): 3.51 µM
TGI (M14 melanoma): 13.3 µM
GI50 (SF-539 CNS): 1.85 µM
TGI (SF-539 CNS): 4.17 µM
GI50 (HCT-15 colon): 4.99 µM
TGI (HCT-15 colon): 33.7 µM
GI50 (RXF 393 renal): 3.08 µM
TGI (RXF 393 renal): 12.4 µM
GI50 (HT29 colon): 2.52 µM
TGI (HT29 colon): 6.65 µM
GI50 (MDA-MB-435): 1.86 µM
TGI (MDA-MB-435): 4.82 µM
GI50 (HL-60(TB) leukemia): 3.47 µM
TGI (HL-60(TB) leukemia): 12.6 µM
GI50 (SNB-19 CNS): 4.6 µM
TGI (SNB-19 CNS): 18.9 µM
GI50 (TK-10 renal): 3.35 µM
TGI (TK-10 renal): 14.1 µM
GI50 (SF-295 CNS): 3.4 µM
TGI (SF-295 CNS): 11.6 µM
GI50 (COLO 205 colon): 2.49 µM
TGI (COLO 205 colon): 6.14 µM
GI50 (OVCAR-5 ovarian): 6.3 µM
TGI (OVCAR-5 ovarian): 18.6 µM
GI50 (DU-145 prostate): 4.1 µM
TGI (DU-145 prostate): 17.2 µM
GI50 (K-562 leukemia): 3.3 µM
TGI (K-562 leukemia): 11.1 µM
GI50 (MDA-MB-231 breast): 3.5 µM
TGI (MDA-MB-231 breast): 14.4 µM
GI50 (RPMI-8226 leukemia): 3.21 µM
TGI (RPMI-8226 leukemia): 24.7 µM
GI50 (NCI-H460 lung): 4.23 µM
TGI (NCI-H460 lung): 16.5 µM
GI50 (SN12C renal): 4.05 µM
TGI (SN12C renal): 15.1 µM
GI50 (SR leukemia): 2.87 µM
TGI (SR leukemia): 11.5 µM
GI50 (KM12 colon): 3.55 µM
TGI (KM12 colon): 13.7 µM
GI50 (HOP-92 NSCLC): 10.4 µM
TGI (HOP-92 NSCLC): 25.2 µM
GI50 (OVCAR-4 ovarian): 3.42 µM
TGI (OVCAR-4 ovarian): 14 µM
GI50 (SF-268 CNS): 6.18 µM
TGI (SF-268 CNS): 21.7 µM
GI50 (HOP-62 NSCLC): 4.22 µM
TGI (HOP-62 NSCLC): 15.7 µM
GI50 (A549 NSCLC): 5.85 µM
TGI (A549 NSCLC): 19 µM
GI50 (UACC-62 melanoma): 3.71 µM
TGI (UACC-62 melanoma): 14.1 µM
GI50 (SK-MEL-28 melanoma): 5.07 µM
TGI (SK-MEL-28 melanoma): 17.6 µM
GI50 (T-47D breast): 6.45 µM
TGI (T-47D breast): 27.9 µM
GI50 (CCRF-CEM leukemia): 6.77 µM
TGI (CCRF-CEM leukemia): 35.6 µM
GI50 (U251 CNS): 4.03 µM
TGI (U251 CNS): 14.4 µM
GI50 (SK-MEL-5 melanoma): 3.88 µM
TGI (SK-MEL-5 melanoma): 15.5 µM
GI50 (MDA-N): 2.74 µM
TGI (MDA-N): 10.3 µM
GI50 (A498 renal): 5.31 µM
TGI (A498 renal): 20.3 µM
GI50 (BT-549 breast): 5.4 µM
TGI (BT-549 breast): 19.3 µM
GI50 (EKVX NSCLC): 5.74 µM
TGI (EKVX NSCLC): 17.7 µM
GI50 (SW-620 colon): 3.98 µM
TGI (SW-620 colon): 16.2 µM
GI50 (HS 578T breast): 2.95 µM
TGI (HS 578T breast): 15.7 µM
GI50 (OVCAR-3 ovarian): 3.23 µM
TGI (OVCAR-3 ovarian): 12.2 µM
GI50 (MCF7 breast): 4.52 µM
TGI (MCF7 breast): 17.9 µM
GI50 (786-0 renal): 3.59 µM
TGI (786-0 renal): 13.4 µM
GI50 (IGROV1 ovarian): 3.07 µM
TGI (IGROV1 ovarian): 12.4 µM
GI50 (HCT-116 colon): 2.88 µM
TGI (HCT-116 colon): 9.33 µM
GI50 (MOLT-4 leukemia): 4.17 µM
TGI (MOLT-4 leukemia): 16.8 µM
GI50 (NCI/ADR-RES ovarian): 2.26 µM
TGI (NCI/ADR-RES ovarian): 5.52 µM
GI50 (SK-MEL-2 melanoma): 2.82 µM
TGI (SK-MEL-2 melanoma): 17.9 µM
GI50 (LOX IMVI melanoma): 8.21 µM
TGI (LOX IMVI melanoma): 22.3 µM
GI50 (NCI-H23 lung): 11.4 µM
TGI (NCI-H23 lung): 24.9 µM
GI50 (UACC-257 melanoma): 9.22 µM
TGI (UACC-257 melanoma): 22 µM
GI50 (OVCAR-8 ovarian): 5.88 µM
TGI (OVCAR-8 ovarian): 21.9 µM
GI50 (SK-OV-3 ovarian): 2.45 µM
TGI (SK-OV-3 ovarian): 7.03 µM
GI50 (ACHN renal): 7.5 µM
TGI (ACHN renal): 26.1 µM
GI50 (NCI-H522 lung): 3.24 µM
TGI (NCI-H522 lung): 12 µM
GI50 (UO-31 renal): 6.37 µM
TGI (UO-31 renal): 20.3 µM

O=c1ccc2ccc(O)cc2o1
TGI (SNB-75 CNS): > 100 µM
TGI (MALME-3M melanoma): > 100 µM
TGI (CAKI-1 renal): > 100 µM
TGI (PC-3 prostate): > 100 µM
TGI (M14 melanoma): > 100 µM
TGI (SF-539 CNS): > 100 µM
TGI (HCT-15 colon): > 100 µM
TGI (RXF 393 renal): > 100 µM
TGI (HT29 colon): > 100 µM
TGI (MDA-MB-435): > 100 µM
TGI (HL-60(TB) leukemia): > 100 µM
TGI (SNB-19 CNS): > 100 µM
TGI (TK-10 renal): > 100 µM
TGI (SF-295 CNS): > 100 µM
TGI (COLO 205 colon): > 100 µM
TGI (OVCAR-5 ovarian): > 100 µM
TGI (DU-145 prostate): > 100 µM
TGI (MDA-MB-231 breast): > 100 µM
TGI (RPMI-8226 leukemia): > 100 µM
TGI (SN12C renal): > 100 µM
TGI (KM12 colon): > 100 µM
TGI (HOP-92 NSCLC): > 100 µM
TGI (OVCAR-4 ovarian): > 100 µM
TGI (SF-268 CNS): > 100 µM
TGI (HOP-62 NSCLC): > 100 µM
TGI (A549 NSCLC): > 100 µM
TGI (UACC-62 melanoma): > 100 µM
TGI (SK-MEL-28 melanoma): > 100 µM
TGI (T-47D breast): > 100 µM
TGI (CCRF-CEM leukemia): > 100 µM
TGI (U251 CNS): > 100 µM
TGI (SK-MEL-5 melanoma): > 100 µM
TGI (MDA-N): > 100 µM
TGI (A498 renal): > 100 µM
TGI (BT-549 breast): > 100 µM
TGI (EKVX NSCLC): > 100 µM
TGI (SW-620 colon): > 100 µM
TGI (HS 578T breast): > 100 µM
TGI (OVCAR-3 ovarian): > 100 µM
TGI (MCF7 breast): > 100 µM
TGI (786-0 renal): > 100 µM
TGI (HCC-2998 colon): > 100 µM
TGI (IGROV1 ovarian): > 100 µM
TGI (HCT-116 colon): > 100 µM
TGI (MOLT-4 leukemia): > 100 µM
TGI (NCI/ADR-RES ovarian): > 100 µM
TGI (SK-MEL-2 melanoma): > 100 µM
TGI (LOX IMVI melanoma): > 100 µM
TGI (NCI-H23 lung): > 100 µM
TGI (UACC-257 melanoma): > 100 µM
TGI (OVCAR-8 ovarian): > 100 µM
TGI (SK-OV-3 ovarian): > 100 µM
TGI (NCI-H226 lung): > 100 µM
TGI (ACHN renal): > 100 µM
TGI (NCI-H522 lung): > 100 µM
TGI (UO-31 renal): > 100 µM
